This is an account of results in patent US20260217699A1, “BERBERINE TAUROURSODEOXYCHOLATE COMPOSITIONS AND METHODS THEREOF” (SHENZHEN HIGHTIDE BIOPHARMACEUTICAL LTD., priority 2023, published 2026).

Format in all cases: in vivo, Sprague-Dawley rats
In assay [1] the test system is tyrosine hydroxylase (TH)-positive cells. In words: Immunofluorescence staining of TH in Str and SN brain regions. Conditions: Mean ± SEM, N=15; for TH staining SN positive cells num.: Model 0.9 ± 0.5; for TH staining Str Fluorescence intensity: Model 11.1 ± 3.0. Here is the method:
After the rat was anesthetized, the abdominal cavity and thorax were cut open with straight scissors to expose the heart. The blood was first flushed out with normal saline perfusion, and then paraformaldehyde was used for initial perfusion fixation. The head was cut off, and the brain case was carefully opened with tweezers, and the brain tissue was removed and placed in paraformaldehyde solution and fix for 24 h; on the second day, took out the brain tissue and placed in 20% sucrose solution for 24 h; on the third day, took out the brain tissue and placed in 30% sucrose solution for 24 h; on the fourth day, took out the brain tissue and placed in 35% sucrose solution for 24 h (increase the time or concentration appropriately according to the condition of sugar deposition in the brain tissues); took out the brain tissue, embedded it in OCT embedding agent, and cut brain slices at the thickness of […] with a freezing microtome.
Immunohistochemical staining of TH and Iba-1 was performed on the sections. Sections were rewarmed for 30 min, closed at room temperature for 1 h with 50% serum+0.3% TritonX-100 in 50 μL per slice, shook off the slices, added primary antibody (diluted in PBS), overnight at 4° C.; rewarmed for 30 min; washed off primary antibody (PBS), 5 min×3 times; added secondary antibody (diluted in PBS) by backlighting, room temperature for 2 h; washed off secondary antibody (PBS), 5minx 3 times; added (4′,6-diamidino-2-phenylindole) (DAPI), and stayed at room temperature for 10 min; washed off DAPI, 5 min×3 times; added 70% glycerol to seal the slices to avoid air bubbles. Observed and took pictures under a microscope. Selected basically the same target brain area for each slice. Afterwards, ImageJ was used to count the signal number or area of the entire slice.
(§1) Experimental Methods: Seventy 180-220g SD male rats were selected and fed for one week for accumulation, and the PD model was established by stereotactic unilateral injection of 6-OHDA in the Substantia Nigra (SN) and Striatum (Str) regions and were randomly divided into five groups according to their body weights including Madopar group (Madopar, 50 mg/kg), BTUDC-L group (BTUDC, 100 mg/kg), BTUDC-M group (BTUDC, 500 mg/kg), and BTUDC-H group (BTUDC, 1000 mg/kg), with 10 animals in each group. Another 10 SD male rats were taken for sham operation (only 4 μL of 0.9% NS containing 0.02% ascorbic acid was given to the SN and Str brain regions during modeling) as the Sham group. The drug was administered by gavage once daily continuously for 21 days starting on the second day of modeling (first day of dosing, D1). General observation was made during the dosing period. At the end of the administration, the test articles were evaluated for tolerance in this model and in behavioral apomorphine—asymmetric rotation test, beam test, rotarod test and grip strength test, immunofluorescence staining (TH, Ibal), and cerebrospinal fluid inflammatory factor assays to evaluate the pharmacodynamic effects of the test articles. Inflammatory factors tested included interleukin 6 (1L-6), inflammatory factor […], Tumor Necrosis Factor alpha (TNF-α), inflammatory assays were done in a total of 4 groups included Sham, Model, Madopar and BTUDC-H groups.
Dosing volume: 10 mL/kg • 1. General observation: During the period of drug administration, body weight, food intake test and cage side observation were conducted every 3 days. • 2. Behavioral test: After 21 days of administration, behavioral test was carried out on the following day. • 3. […]

Assay [2] has as its system 6-OHDA Stereotactic Injection Induced PD Rats. In words: Apomorphine-asymmetric rotation test. An excerpt:
(§2) The rats were respiratory anesthetized with isoflurane; the head was fixed to ensure that there was no movement and the brain surface was adjusted to be flat; the head was shaved, and a skin incision was made along the sagittal suture to expose the fontanel point; the glass electrode was positioned to the fontanel, and the axes of the coordinate monitor were zeroed to locate the brain areas of the SN and the Str based on the coordinates, in which the SN: AP=−5.0 mm; ML=−1.9 mm; DV=−8.5 mm, and Str: AP=+0.5 mm; ML=−3.0 mm; DV=−6.0 mm. […]; slowly inserted the needle into the localized area of SN and Str, waited for 10 min, and then administered the drug of 6-OHDA at a rate of […] for 10 min, and each animal was given […] of each of SN and Str area, and then the needle was slowly withdrawn after the drug was administered for 10 min, and the PD rat model was established.
The animals were tested three weeks post-administration. 0.5 mg/kg of apomorphine was injected intraperitoneally. The number of rotations of each rat in 30 min were recorded, and the rat appeared to rotate in place toward the opposite side of the injury using the rotating forelimb as a support point. […]
Experimental Methods: Seventy 180-220g SD male rats were selected and fed for one week for accumulation, and the PD model was established by stereotactic unilateral injection of 6-OHDA in the Substantia Nigra (SN) and Striatum (Str) regions and were randomly divided into five groups according to their body weights including Madopar group (Madopar, 50 mg/kg), BTUDC-L group (BTUDC, 100 mg/kg), BTUDC-M group (BTUDC, 500 mg/kg), and BTUDC-H group (BTUDC, 1000 mg/kg), with 10 animals in each group. […] At the end of the administration, the test articles were evaluated for tolerance in this model and in behavioral apomorphine—asymmetric rotation test, beam test, rotarod test and grip strength test, immunofluorescence staining (TH, Ibal), and cerebrospinal fluid inflammatory factor assays to evaluate the pharmacodynamic effects of the test articles. […]

For assay [3] the test system is unchanged. In words: Balance beam test. Conditions: for Foot Slips Times / Passage Time: Mean ± SEM, N=10; for Foot Slips Times: Model 1.7 ± 0.2; for Passage Time: Model 10.9 ± 1.3.
Source text: as §2
The rat was placed on a balance beam. The time was recorded it took for the rat to pass the balance beam as well as the number of foot slips (feet leave the top of the balance beam). The average of the two successful passing times and the number of foot slips were used as the evaluation criteria for the rat's locomotor balance ability. Information regarding beam test can also be found in the literature (Allbutt, et al. 2007 J Neurosci Methods 159(2):195-202; Fine, et al. 2014 Brain Res. 1574:96-104).
In this study, 16 Sprague Dawley (SD) male rats 180g-220g were used to establish a PD model by stereotactic unilateral injection of 6-OHDA in the substantia nigra (SN) and striatum (Str) brain areas after one week of acclimatization feeding and were randomly divided into 2 groups of 8 rats each. One group was dosed with the test compound BTUDC 500 mg/kg (QD, p.o.) and the other group was the Model group, which was given an equal volume of 0.5% CMC-Na (QD, p.o.) as the test compound group. The animals were administered once a day for 21 consecutive days starting from the second day after modeling to evaluate the tolerability and therapeutic potential of BTUDC in the 6-OHDA PD model.
as §1

[4] abbreviates: BTUDC-H 1000 mg/kg p.o. Qd 21 days, p<0.001 vs Model.
Setting [5] is: BTUDC-L 100 mg/kg p.o. Qd 21 days, no significance mark.
The mark [6] stands for this setting: BTUDC-M 500 mg/kg p.o. Qd 21 days, p<0.001 vs Model.

With `COc1ccc2cc3[n+](cc2c1OC)CCc1cc2c(cc1-3)OCO2.C[C@H](CCC(=O)NCCS(=O)(=O)[O-])[C@H]1CC[C@H]2[C@@H]3[C@@H](O)C[C@@H]4C[C@H](O)CC[C@]4(C)[C@H]3CC[C@]12C` [BTUDC, Berberine tauroursodeoxycholate], the “TH staining SN positive cells num.” value in assay [1] (setting [4]) is reported as 12.7 ± 3.1; in assay [1] (setting [5]), 0.7 ± 0.3; in assay [1] (BTUDC-M 500 mg/kg p.o. Qd 21 days, no significance mark) it was 2.0 ± 0.6. Moreover, the “TH staining Str Fluorescence intensity” value stood at 65.8 ± 4.4 in assay [1] (setting [4]), 19.8 ± 3.5 in assay [1] (setting [5]) and 32.6 ± 5.5 in assay [1] (setting [6]). The “difference in number of ipsilateral rotations within 30 minutes vs Model group” value in assay [2] (500 mg/kg QD p.o. 21 days, p>0.05) is given as “no statistically significant difference”. In assay [2] (BTUDC-H 1000 mg/kg p.o. Qd 21 days), the “number of rotational circles within 30 min of apomorphine injection vs Model group” value is reported as “significantly lower”. Besides, in assay [2] (within 30 minutes of apomorphine injection, 500 mg/kg/day p.o. 21 days, 8 rats, Model 126.380 ± 31.681), the “Number of Ipsilateral Rotation” value is 109.000 ± 23.670. In addition, the “Beam Test Number of feet slips” value in assay [3] (500 mg/kg QD p.o. 21 days, Model 1.313 ± 0.3772, P < 0.001 vs Model) worked out at 0.250 ± 0.0945. Also, the “Beam Test Passing time” value in assay [3] (500 mg/kg QD p.o. 21 days, Model 9.938 ± 1.8088, P < 0.001 vs Model) was determined as 3.563 ± 0.6228 s. Besides, the “Foot Slips Times” value was 0.6 ± 0.2 in assay [3] (setting [4]); 1.0 ± 0.3 in assay [3] (BTUDC-L 100 mg/kg p.o. Qd 21 days, p<0.05 vs Model); 0.8 ± 0.2 in assay [3] (BTUDC-M 500 mg/kg p.o. Qd 21 days, p<0.01 vs Model). Further, the “Passage Time” value in assay [3] (setting [4]) is 4.8 ± 0.4 s; in assay [3] (BTUDC-L 100 mg/kg p.o. Qd 21 days, p<0.01 vs Model), 8.0 ± 0.7 s; in assay [3] (setting [6]) it was 6.4 ± 0.7 s.
